Values joined by “and” are separate entries in the source; they are usually repeats but may differ in a detail not shown here. Equal entries are not always repeated. Inconclusive results and toxic doses are left out. Square brackets hold non-standard residues; d marks the D form. Peptide text beside a SMILES is read from it. * marks the point of attachment. Cbz = O=C(OCc1ccccc1)*; Nva = CCC[CH](N)C(=O)O
System: P388 leukemia ip, CD2F1 mice, survival T/C
Assay: NCI In Vivo Anticancer Drug Screen. Data for tumor model P388 Leukemia (intraperitoneal) in CD2F1 (CDF1) mice
Conditions: endpoint: median survival time, higher = longer survival
Procedure: The antitumor activity of compounds was measured in mice bearing transplantable tumors. Survival or tumor size were measured and the results are expressed as the measurement made in the treated group (T) divided by the measurement made in the vehicle treated control group (C). The tumor model used in this assay is P388 Leukemia (intraperitoneal) in CD2F1 (CDF1) mice

[1] = dose: 50.0 mg/kg/injection, schedule: Q01DX005 (ip), vehicle: saline with Tween-80
[2] = dose: 100.0 mg/kg/injection, schedule: Q01DX005 (ip), vehicle: saline with Tween-80
[3] = dose: 200.0 mg/kg/injection, schedule: Q01DX005 (ip), vehicle: saline with Tween-80
[4] = dose: 12.5 mg/kg/injection, schedule: Q01DX005 (ip), vehicle: saline
[5] = dose: 25.0 mg/kg/injection, schedule: Q01DX005 (ip), vehicle: saline
[6] = dose: 100.0 mg/kg/injection, schedule: Q01DX009 (ip), vehicle: saline
[7] = dose: 12.5 mg/kg/injection, schedule: Q01DX005 (ip), vehicle: saline with Tween-80
[8] = dose: 60.0 mg/kg/injection, schedule: Q01DX005 (ip), vehicle: saline with Tween-80
[9] = dose: 12.5 mg/kg/injection, schedule: Q01DX009 (ip), vehicle: saline with Tween-80
[10] = dose: 25.0 mg/kg/injection, schedule: Q01DX009 (ip), vehicle: saline with Tween-80
[11] = dose: 50.0 mg/kg/injection, schedule: Q01DX009 (ip), vehicle: saline with Tween-80
[12] = dose: 50.0 mg/kg/injection, schedule: Q01DX009 (ip), vehicle: saline
[13] = dose: 50.0 mg/kg/injection, schedule: Q01DX005 (ip), vehicle: Klucel (hydroxypropylcellulose) (HPC)
[14] = dose: 100.0 mg/kg/injection, schedule: Q01DX005 (ip), vehicle: Klucel (hydroxypropylcellulose) (HPC)
[15] = dose: 200.0 mg/kg/injection, schedule: Q01DX005 (ip), vehicle: Klucel (hydroxypropylcellulose) (HPC)
[16] = dose: 6.25 mg/kg/injection, schedule: Q01DX009 (ip), vehicle: saline with Tween-80
[17] = dose: 12.5 mg/kg/injection, schedule: Q01DX009 (ip), vehicle: distilled water + Tween-80
[18] = dose: 25.0 mg/kg/injection, schedule: Q01DX009 (ip), vehicle: distilled water + Tween-80
[19] = dose: 50.0 mg/kg/injection, schedule: Q01DX009 (ip), vehicle: distilled water + Tween-80
[20] = dose: 100.0 mg/kg/injection, schedule: Q01DX009 (ip), vehicle: distilled water + Tween-80
[21] = dose: 25.0 mg/kg/injection, schedule: Q01DX005 (ip), vehicle: saline with Tween-80
[22] = dose: 50.0 mg/kg/injection, schedule: Q01DX005 (ip), vehicle: saline
[23] = dose: 50.0 mg/kg/injection, schedule: Q01DX009 (ip), vehicle: Klucel (hydroxypropylcellulose) (HPC)
[24] = dose: 100.0 mg/kg/injection, schedule: Q01DX009 (ip), vehicle: Klucel (hydroxypropylcellulose) (HPC)
[25] = dose: 200.0 mg/kg/injection, schedule: Q01DX009 (ip), vehicle: Klucel (hydroxypropylcellulose) (HPC)

C=C1C(=O)C2CCN1CC2
T/C [1]: 105 % of control and 110 % of control and 113 % of control
T/C [2]: 113 % of control and 116 % of control (2×)
T/C [3]: 111 % of control and 116 % of control

CN(C)c1ccc(N)c(N)c1
T/C (dose: 3.12 mg/kg/injection, schedule: Q01DX005 (ip), vehicle: saline): 99 % of control
T/C (dose: 6.25 mg/kg/injection, schedule: Q01DX005 (ip), vehicle: saline): 99 % of control
T/C [4]: 103 % of control
T/C [5]: 105 % of control and 106 % of control
T/C [6]: 98 % of control

O=C(Cc1nc2ccccc2nc1CC(=O)c1ccncc1)c1ccncc1
T/C (dose: 6.25 mg/kg/injection, schedule: Q01DX005 (ip), vehicle: saline with Tween-80): 102 % of control
T/C [7]: 90 % of control
T/C [8]: 93 % of control
T/C (dose: 240.0 mg/kg/injection, schedule: Q01DX005 (ip), vehicle: saline with Tween-80): 98 % of control

CCCCCCC1CC2CCCCN2O1 (stereo not drawn)
T/C (dose: 40.0 mg/kg/injection, schedule: Q01DX009 (ip), vehicle: Klucel (hydroxypropylcellulose) (HPC)): 113 % of control
T/C (dose: 80.0 mg/kg/injection, schedule: Q01DX009 (ip), vehicle: Klucel (hydroxypropylcellulose) (HPC)): 107 % of control
T/C (dose: 160.0 mg/kg/injection, schedule: Q01DX009 (ip), vehicle: Klucel (hydroxypropylcellulose) (HPC)): 119 % of control

NC(=O)CCC(N)C(=O)O (stereo not drawn)
T/C [9]: 105 % of control
T/C [10]: 119 % of control
T/C [11]: 112 % of control
T/C [12]: 113 % of control
T/C [6]: 101 % of control and 116 % of control
T/C (dose: 200.0 mg/kg/injection, schedule: Q01DX009 (ip), vehicle: saline): 90 % of control and 109 % of control
T/C (dose: 400.0 mg/kg/injection, schedule: Q01DX009 (ip), vehicle: saline): 109 % of control

O=C(Cc1n[nH]c(=S)nc1CC(=O)c1cccnc1)c1cccnc1
T/C [8]: 100 % of control
T/C (dose: 120.0 mg/kg/injection, schedule: Q01DX005 (ip), vehicle: saline with Tween-80): 96 % of control

Cc1ccc2c(c1)Nc1ccc(C)cc1C2(C)C
T/C [13]: 104 % of control
T/C [14]: 100 % of control
T/C [15]: 97 % of control

CCC(=N/NC(=S)NCCN1CCCCC1)/C(CC)=N\NC(=S)NCCN1CCCCC1
T/C (dose: 3.13 mg/kg/injection, schedule: Q01DX009 (ip), vehicle: saline with Tween-80): 100 % of control
T/C [16]: 103 % of control

CN(C)CCNC1=CC(=O)c2ccccc2C1=O
T/C [17]: 94 % of control
T/C [18]: 101 % of control
T/C [19]: 100 % of control
T/C [20]: 97 % of control

CCCC(NC(=O)OCc1ccccc1)C(=O)NC(Cc1ccccc1)C(=O)O (stereo not drawn) (Cbz-[Nva]-Phe-OH; configuration not given here)
T/C [13]: 108 % of control
T/C [14]: 106 % of control
T/C [15]: 100 % of control

COc1cc2c[n+](C)c3c(c2cc1OC)Cc1cc2c(cc1-3)OCO2
T/C [21]: 151 % of control
T/C [22]: 174 % of control
T/C [2]: 168 % of control

COC(=O)Nc1cc2c(cc1[N+](=O)[O-])OCCOCCOCCOCCO2
T/C [1]: 100 % of control
T/C [2]: 98 % of control
T/C [3]: 101 % of control

CC(/C=N\NC(=S)SCc1ccccc1)=N/N=C(N)N
T/C [16]: 101 % of control
T/C [9]: 95 % of control
T/C [10]: 101 % of control
T/C [12]: 91 % of control
T/C [6]: 92 % of control

CC(=O)Oc1c(I)cc(Cc2nc(C)oc2C)cc1I
T/C (dose: 100.0 mg/kg/injection, schedule: Q01DX001 (ip), vehicle: saline): 99 % of control
T/C (dose: 200.0 mg/kg/injection, schedule: Q01DX001 (ip), vehicle: saline): 102 % of control
T/C (dose: 400.0 mg/kg/injection, schedule: Q01DX001 (ip), vehicle: saline): 102 % of control

CSc1c(C(=O)NC(C)C)cc(C(C)(C)C)cc1C(=O)NC(C)C
T/C [23]: 89 % of control
T/C [24]: 86 % of control
T/C [25]: 89 % of control

C=C1CCCC2CCC[N+](C)(CC(=O)OCC)C12 (stereo not drawn)
T/C [22]: 93 % of control

Oc1ccccc1C=Nc1ccccc1C(F)(F)F
T/C [11]: 101 % of control
T/C (dose: 100.0 mg/kg/injection, schedule: Q01DX009 (ip), vehicle: saline with Tween-80): 103 % of control
T/C (dose: 200.0 mg/kg/injection, schedule: Q01DX009 (ip), vehicle: saline with Tween-80): 95 % of control
T/C (dose: 400.0 mg/kg/injection, schedule: Q01DX009 (ip), vehicle: saline with Tween-80): 97 % of control

CCCC[N+](CCCC)=c1ccc2nc3c(C)cc(N(CC)CC)cc3sc-2c1
T/C (dose: 0.75 mg/kg/injection, schedule: Q01DX005 (ip), vehicle: saline): 111 % of control
T/C (dose: 1.5 mg/kg/injection, schedule: Q01DX005 (ip), vehicle: saline): 112 % of control
T/C (dose: 3.0 mg/kg/injection, schedule: Q01DX005 (ip), vehicle: saline): 118 % of control and 120 % of control

O=C(NP(=O)(N1CC1)N1CC1)c1cc(I)ccc1I
T/C (dose: 4.0 mg/kg/injection, schedule: Q01DX005 (ip), vehicle: suspension in saline): 122 % of control
T/C (dose: 4.0 mg/kg/injection, schedule: Q01DX005 (iv), vehicle: suspension in saline): 107 % of control
T/C (dose: 8.0 mg/kg/injection, schedule: Q01DX005 (iv), vehicle: suspension in saline): 112 % of control
T/C (dose: 16.0 mg/kg/injection, schedule: Q01DX005 (ip), vehicle: suspension in saline): 165 % of control
T/C (dose: 16.0 mg/kg/injection, schedule: Q01DX005 (iv), vehicle: suspension in saline): 122 % of control
T/C (dose: 32.0 mg/kg/injection, schedule: Q01DX005 (ip), vehicle: suspension in saline): 190 % of control
T/C (dose: 64.0 mg/kg/injection, schedule: Q01DX005 (ip), vehicle: suspension in saline): 192 % of control

O=C1CCOc2cccc(c2)OCCC(=O)OCCCOC(=O)CCOc2cccc(c2)OCCC(=O)OCCCO1
T/C [4]: 103 % of control
T/C [5]: 107 % of control
T/C [13]: 96 % of control
T/C [22]: 98 % of control

Cc1cc(NCc2ccccc2)c(C)c2c1C=NCC2
T/C [17]: 97 % of control
T/C [18]: 97 % of control
T/C [19]: 106 % of control
T/C [20]: 92 % of control
T/C (dose: 200.0 mg/kg/injection, schedule: Q01DX009 (ip), vehicle: distilled water + Tween-80): 87 % of control

ClCCN(CCCl)c1ccc(CNCCCNCc2ccc(N(CCCl)CCCl)cc2)cc1
T/C (dose: 2.5 mg/kg/injection, schedule: Q01DX009 (ip), vehicle: saline sonified): 152 % of control
T/C (dose: 5.0 mg/kg/injection, schedule: Q01DX009 (ip), vehicle: saline sonified): 95 % of control

Nc1ncnc2c1ccn2Cc1c(Cl)cccc1Cl
T/C (dose: 50.0 mg/kg/injection, schedule: Q01DX005 (ip), vehicle: distilled water + alcohol): 101 % of control
T/C (dose: 100.0 mg/kg/injection, schedule: Q01DX005 (ip), vehicle: distilled water + alcohol): 101 % of control
T/C (dose: 200.0 mg/kg/injection, schedule: Q01DX005 (ip), vehicle: distilled water + alcohol): 98 % of control

CC(=O)NS(=O)(=O)c1ccc(N=Nc2c(C)nn(C(=O)c3cccnc3)c2-c2ccccc2)cc1
T/C [1]: 87 % of control
T/C [2]: 89 % of control

CCOC(=O)c1ccc(NC(=O)c2cccc(Cl)c2)cc1
T/C [23]: 104 % of control
T/C [24]: 100 % of control
T/C [25]: 98 % of control

O=C(Nc1ccc(O)cc1)C(F)(F)F
T/C [23]: 93 % of control
T/C [24]: 95 % of control
T/C [25]: 90 % of control

Cn1c(CN(Cc2nc3ccccc3n2C)Cc2nc3ccccc3n2C)nc2ccccc21
T/C [7]: 103 % of control and 98 % of control
T/C [21]: 100 % of control and 102 % of control
T/C [1]: 103 % of control and 110 % of control

Source: PubChem BioAssay AID330 (DTP/NCI, 2004)
